In general, EC50 refers to the concentration at which the effect is half-maximal. The low end stands for an effect from little substance, the high end for a need for much substance.

Data on 1 substance can be found in patent publication US9617273B2, “Fused tetra or penta-cyclic dihydrodiazepinocarbazolones as PARP inhibitors” (BEIGENE, LTD., priority 2011, dated 2017).

The test system of the test is PARP PARylation in HeLa cells. Description: PARylation assay in HeLa cells. In kind it is cell-based. The note with it: H2O2-provoked DNA damage.

Regarding “10-(2-hydroxyethyl)-2,2-dimethyl-2,3,5,10-tetrahydro-[1,2]diazepino[3,4,5,6-def]carbazol-6(1H)-one [Compound 67]”, a half-maximal effect (EC50) was put at 247 nM.
